Source: the supplement of paper PMC13380429
± gives the standard deviation of the averaged measurements.

Experiments:
Settings in all cases: 72 h
Vero E6 [1] = test: cell viability relative to DMSO; higher = less toxic
U2OS [2] = test: as above
HepG2 [3] = test: as above
Caco-2 [4] = test: as above
Calu-3 [5] = test: as above
Vero E6 [6] = test: relative viability EC50 (midpoint between 100% and the lowest measured viability); higher = less toxic
U2OS [7] = test: as above
HepG2 [8] = test: as above
Caco-2 [9] = test: as above
Calu-3 [10] = test: as above
Vero E6 [11] = test: drug sensitivity score (DSS) for viability; higher = more toxic; extreme values may be limits of the assay
U2OS [12] = test: as above
HepG2 [13] = test: as above
Caco-2 [14] = test: as above
Calu-3 [15] = test: as above

SMILES	cell viability (Vero E6 [1]; 1 nM) [%]	cell viability (Vero E6 [1]; 10 nM) [%]	cell viability (Vero E6 [1]; 100 nM) [%]	cell viability (Vero E6 [1]; 1000 nM) [%]	cell viability (Vero E6 [1]; 10000 nM) [%]	cell viability (U2OS [2]; 1 nM) [%]	cell viability (U2OS [2]; 10 nM) [%]	cell viability (U2OS [2]; 100 nM) [%]	cell viability (U2OS [2]; 1000 nM) [%]	cell viability (U2OS [2]; 10000 nM) [%]	cell viability (HepG2 [3]; 1 nM) [%]	cell viability (HepG2 [3]; 10 nM) [%]	cell viability (HepG2 [3]; 100 nM) [%]	cell viability (HepG2 [3]; 1000 nM) [%]	cell viability (HepG2 [3]; 10000 nM) [%]	cell viability (Caco-2 [4]; 1 nM) [%]	cell viability (Caco-2 [4]; 10 nM) [%]	cell viability (Caco-2 [4]; 100 nM) [%]	cell viability (Caco-2 [4]; 1000 nM) [%]	cell viability (Caco-2 [4]; 10000 nM) [%]	cell viability (Calu-3 [5]; 1 nM) [%]	cell viability (Calu-3 [5]; 10 nM) [%]	cell viability (Calu-3 [5]; 100 nM) [%]	cell viability (Calu-3 [5]; 1000 nM) [%]	cell viability (Calu-3 [5]; 10000 nM) [%]	relative viability EC50 (Vero E6 [6]) [µM]	relative viability EC50 (U2OS [7]) [µM]	relative viability EC50 (HepG2 [8]) [µM]	relative viability EC50 (Caco-2 [9]) [µM]	relative viability EC50 (Calu-3 [10]) [µM]	drug sensitivity score (Vero E6 [11])	drug sensitivity score (U2OS [12])	drug sensitivity score (HepG2 [13])	drug sensitivity score (Caco-2 [14])	drug sensitivity score (Calu-3 [15])
COc1ncc(-c2ccc3nccc(-c4ccnnc4)c3c2)cc1NS(=O)(=O)c1ccc(F)cc1F	90.2	80.1	38.9	22.6	15.1	91	80.3	34.2	13.9	0.9	98.8	77.2	46.3	25	29.2	84.8	60.2	19	25.3	28.8	79.4	47.4	22.2	19.5	17.4	0.0351	0.0484	0.0297	0.0081	0.0044	24.1	26.2	22.2	29.8	32.5
CCCCCCCCCCCCOS(=O)(=O)O [dodecyl-sulfate]	100 ± 5.2	102 ± 7.9	95.7 ± 5.3	104 ± 1.7	101 ± 6.7	100 ± 4.9	93.5 ± 0.28	102 ± 4	91.7 ± 0.28	100 ± 4.6	106 ± 15	106 ± 12	102 ± 7	99.6 ± 5.7	92.1 ± 3.1	101 ± 8.6	99.5 ± 16	102 ± 3.1	99.2 ± 3.1	106 ± 27	106 ± 17	94.5 ± 9	103 ± 4.2	90.5 ± 6.3	106 ± 3.5	> 10	> 10	> 10	> 10	> 10	0	0	0	0.05 ± 0.071	0
Cc1cc(OCCCS(C)(=O)=O)cc(C)c1-c1cccc(COc2ccc3c(c2)OC[C@H]3CC(=O)O)c1 [TAK-875]	100	106	97.3	98.7	96.3	95.6	98.7	96.9	96.7	94.3	93.8	97.3	95.9	94.4	96.7	99.8	101	89.3	85.4	77.8	98.2	105	99.8	111	102	> 10	> 10	> 10	> 10	> 10	0	0	0	2.5	0
Nc1nc(=O)n([C@H]2C[C@H](O)[C@@H](CO)O2)cc1Cl [cytochlor]	100	98.5	98.8	98.3	98.7	97.7	100	94.4	100	92.5	114	105	113	93.5	76.5	90	97.6	77.4	101	84.6	91.6	98.1	102	95.7	86.3	> 10	> 10	> 10	> 10	> 10	0	0	1.7	0.5	0.4
O=C(OCCN1CCOCC1)C1(c2ccccc2)CCCCC1 [PRE-084]	100	99.7	106	102	105	99.3	100	96.5	107	97.4	106	102	95.6	108	100	108	102	93.9	90.8	89.1	101	107	97.2	103	93	> 10	> 10	> 10	> 10	> 10	0	0	0	0.4	0
CCNCC(O)c1cccc(O)c1 (stereo not given) [etilefrine]	97.1	93.6	98.3	96.4	99.6	98.9	103	98.1	98.9	95.7	95.2	87.3	89	93	104	92.1	105	93	99.7	104	99.2	102	98.9	102	104	> 10	> 10	> 10	> 10	> 10	0	0	0	0	0
CCCCCCCCCCCCCCSCC(=O)O [tetradecylthioacetic-acid]	103	95.6	98.2	99.2	94.6	98.1	101	93.5	97.2	100	90.8	102	86.4	102	119	93.1	104	104	83.9	108	95.2	102	99.1	108	109	> 10	> 10	> 10	> 10	> 10	0	0	0	0	0
